Tests used:
mortalin-C9 binding = mortalin-C9 binding (Homo sapiens, UniProt P02748); assay: ELISA of mortalin binding to C9 with or without mortalin peptides; parameters: key: ↑: enhance; ↓: inhibit; ↑↓: effect depends on dose/time; —: no effect; conditions: summary of in vitro effects
Procedure: FIG. 1 is a histogram depicting results of ELISA (enzyme-linked immunosorbent assay) which detected binding of mortalin to C9 in the presence or absence of various mortalin peptides. Purified human C9 (0.057 μM) was attached overnight at 4° C. to wells of a 96-wells plate and then the excess of C9 was washed. Following, His-tagged recombinant mortalin (0.007 μM) was added to the wells for 1 hour at 37° C. with or without the designated peptides (each at a concentration of 170 μM), which were dissolved in 1% BSA (bovine serum albumin). Following incubation with the mortalin and peptides the wells were washed, treated for 1 hour at 37° C. with mouse anti-His antibody (diluted 1:1000) followed by 1 hour incubation at room temperature with peroxidase-labeled goat anti-mouse IgG (diluted 1:10,000), developed with O-phenylenediamine (OPD) and analyzed by an ELISA reader at 492 nm. […]
Methods of detecting the binding between mortalin and C9 are known in the art [Pilzer et al. Int Immunol (2005) 17:1239-1248; Pilzer et al. Int J Cancer (2010). […] After incubation of the C9 and mortalin, the excess of the labeled mortalin and of the peptide is removed by washing the plate, and the amount of labeled mortalin which is bound to the surface-attached C9 protein is determined using an anti-His antibody (e.g., a mouse anti-His antibody). […]

[1] = test system: primary B-CLL leukemia cells; assay: Direct cell killing of primary leukemia cell preparations, PI flow cytometry; format: cell-based, human; conditions: peptides with TAT sequence at C-terminal, 20 hours, 50 µM concentration
Procedure: (§1) FIG. 8 is a histogram depicting cell death of B-CLL leukemia cells by mortalin peptides. […] Mortalin peptides numbers 2, 7, 8, 10, 14 and 16 and a scrambled control peptide (PC) were tested. […] Following, the cells were labeled with PI and analyzed by Flow Cytometry. Percent of dead cells (PI positive) was calculated.
as §1, with “FIG. 9” for “FIG. 8”
FIG. 10 is a histogram depicting cell death of B-CLL leukemia cells by mortalin peptides. […] Following, the cells were labeled with PI and analyzed by Flow Cytometry. Percent of dead cells (PI positive) was calculated.
FIG. 11 is a histogram depicting cell death of B-CLL leukemia cells and normal mononuclear cells by mortalin peptides. […] Following, the cells were labeled with PI and analyzed by Flow Cytometry. Percent of dead cells (PI positive) was calculated.
Blood drawing from B-CLL patients was approved by the Helsinki Committee of Rabin Medical Center, Petach Tikvah, Israel. […] The cells were treated for 20 hours with the peptides at […] concentration and cell death was determined by propidium iodide labeling and analysis by flow cytometry. […]

[2] = test system: leukemia and lymphoma cell lines; assay: Direct cell killing / direct toxicity (complement independent), overall statement; format: cell-based; parameters: key: ↑: enhance; ↓: inhibit; ↑↓: effect depends on dose/time; —: no effect; conditions: summary of in vitro effects; complement independent cytotoxicity; cell lines and primary B-CLL cells
Procedure: The toxic effect of these peptides was tested on 3 leukemia/lymphoma cell lines Raji (FIG. 5), Ramos (FIG. 6) and Z-138 (FIG. 7). The cells were treated for 24 hours with the peptides and cell death was determined by propidium iodide labeling and analysis by flow cytometry.
In summary, Table 6 below illustrates the relative effects of some of the peptides on mortalin-C9 binding, C9 polymerization, complement-dependent cytotoxicity and complement independent cytotoxicity (direct toxicity).

Raji cells = assay: Complement independent cytotoxicity, Annexin V/PI, FACS; format: cell-based, human; conditions: stand-alone treatment, 0.8 mM, 24 hours
Source text: (§2) Then, the cells were labeled with Annexin/PI and analyzed by Flow Cytometry. FIG. 3A—a histogram depicting the percent of dead cells (Annexin and PI positive) as calculated. FIGS. 3B-D—representative images of cells in control (FIG. 3B) and peptide-treated groups [FIG. 3C (treated with peptide no. 14) and FIG. 3D (treated with peptide no. 16)] stained by DAPI and observed under a fluorescence microscope.
(§3) The complement independent cytotoxic effect of the peptides—To address the toxic effect of the peptides as single agents, the present inventor tested the effect of the peptides no. 14 and 16 on K562 and Raji human cancer cells. The cells were incubated with the peptides for 24-48 hours in growth medium and then tested for apoptosis using an Annexin V/PI (Propidium Iodide) staining kit followed by FACS analysis.

K562 cells [3] = assay: as above; format: cell-based, human; conditions: stand-alone treatment, 0.8 mM, 24 hours
Procedure: as §2, with “Raji or K562 cells were treated without (C) or with 2 mM peptides for 48 hours in their culture medium. Then,” for “Then,”
as §3

Purified human C9 = Purified human C9 (Homo sapiens, UniProt P02748); assay: Zinc-induced C9 polymerization, SDS-PAGE/Coomassie; format: biochemical
Procedure: FIGS. 2A-B are Coomassie blue stained gels depicting inhibition of C9 polymerization by mortalin or the isolated mortalin peptides. Purified human C9 ([…]) was mixed for 15 minutes at 37° C. with BSA ([…]) as control (lanes marked as “BSA”), mortalin ([…], lanes marked as “mot”) or mortalin peptides (1 mM, lanes marked by “p” and the indicated peptide numbers) that were freshly dissolved in Tris buffered saline (TBS); and then incubated with 42 μM ZnCl2 for 2 hours at 37° C. The first lane on the left, marked “C9” refers to a positive control of the purified C9 without BSA, without mortalin or without the isolated peptides. Samples were subjected to SDS-PAGE on a 2.5-14% acrylamide gradient gel and stained with Coomassie blue. The bands of poly C9 appearing on the top part of the gel are indicated. FIGS. 2A and 2B represent two independent experiments.
The effect of the peptides on C9 polymerization—Formation of the complement membrane pores requires that multiple C9 molecules undergo polymerization and generate the doughnut-shape transmembrane complex; thus the effect of the peptides on C9 polymerization was tested. C9 polymerization occurs during C5b-9 generation [Podack and Tschopp, Proc Natl Acad Sci USA. (1982) 79(2):574-8]. […] C9 was mixed with peptides and 42 μM ZnCl2 for 2 hours and the samples were analyzed by SDS-PAGE, on a 2.5-14% acrylamide gradient gel. […]

K562 cells [4] = assay: Complement-dependent cytotoxicity (CDC), antibody + normal human serum, PI inclusion/FACS; format: cell-based; conditions: summary of in vitro effects
Procedure: K562 cells were either pre-incubated with peptides (60 minutes at 37° C.) and then treated with Rabbit anti-K562 polyclonal antiserum (Ab) and normal human serum (as a source for complement) or treated with Ab and complement in presence of the peptide [Ziporen et al. J. Immunol. (2009) 182: 515-21]. Cell death was measured by PI (Propidium Iodide) inclusion and FACS analysis, after 1 hour treatment at 37° C. The effect of the peptides on complement-dependent cytotoxicity—The next objective was to determine which of the peptides could alter cell death and sensitize cancer cells to complement-dependent cytotoxicity (CDC). Thus, cells were incubated with the peptides prior to antibody and complement treatment (denoted herein as pre-incubation) or treated concomitantly with antibody and complement in the presence of the peptides (denoted herein as without pre-incubation). It should be noted that in cases where the peptide was incubated with the cells prior to addition of the antibody and complement (serum) (noted as “preincubation”) cell cytotoxicity begins as complement independent, and then, upon addition of the antibody and complement can continue as complement dependent. […]

Sequence of Purified human C9 (P02748 22-559): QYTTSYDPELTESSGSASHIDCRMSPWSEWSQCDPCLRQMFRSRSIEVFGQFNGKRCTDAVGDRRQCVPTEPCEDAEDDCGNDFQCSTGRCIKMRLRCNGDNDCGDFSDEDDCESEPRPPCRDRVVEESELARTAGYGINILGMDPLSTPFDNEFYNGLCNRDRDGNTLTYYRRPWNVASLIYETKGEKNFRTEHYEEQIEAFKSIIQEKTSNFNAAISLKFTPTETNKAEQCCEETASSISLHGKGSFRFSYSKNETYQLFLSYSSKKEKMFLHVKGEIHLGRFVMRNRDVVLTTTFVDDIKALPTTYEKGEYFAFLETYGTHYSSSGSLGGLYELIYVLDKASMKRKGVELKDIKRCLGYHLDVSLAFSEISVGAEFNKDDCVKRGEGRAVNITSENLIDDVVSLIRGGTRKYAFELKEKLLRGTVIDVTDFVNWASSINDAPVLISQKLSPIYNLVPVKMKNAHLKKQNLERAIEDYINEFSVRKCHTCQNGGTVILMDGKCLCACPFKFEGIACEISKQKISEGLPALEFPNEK
Sequence of mortalin-C9 binding (P02748 22-559): as above

Row | Molecule | Mortalin-C9 binding (mortalin-C9 binding) | cell killing effect on primary leukemia cells [1] | Direct toxicity [2] | capacity to induce apoptosis, TAT-modified versus native peptide no: 14 (Raji cells) | capacity to induce apoptosis, TAT-modified versus native peptide no: 14 (K562 cells [3]) | effect on C9 polymerization (Purified human C9; peptides 1 mM, mortalin 1.4 mM, 42 μM ZnCl2, 2 hours, 37° C., poly C9 band on gel) | C9 polymerization (Purified human C9; summary of in vitro effects) | Effect on CDC (K562 cells [4])
1 | CSCC[C@H](NC(=O)[C@H](Cc1ccc(O)cc1)NC(=O)[C@H](CC(C)C)NC(=O)[C@H](CCC(=O)O)NC(=O)[C@H](CO)NC(=O)[C@H](CCCCN)NC(=O)[C@H](C)NC(=O)[C@H](CCCCN)NC(=O)[C@H](CCC(=O)O)NC(=O)[C@H](C)NC(=O)[C@H](C)NC(=O)[C@H](CCC(=O)O)NC(=O)[C@H](CCCNC(=N)N)NC(=O)[C@@H](NC(=O)[C@H](CCCNC(=N)N)NC(=O)[C@H](CCC(N)=O)NC(=O)[C@H](CC(C)C)NC(=O)[C@H](C)NC(=O)[C@H](CCSC)NC(=O)[C@@H](N)CC(N)=O)C(C)C)C(=O)NCC(=O)N[C@@H](CCCNC(=N)N)C(=O)N[C@@H](CCCCN)C(=O)N[C@@H](CCCCN)C(=O)N[C@@H](CCCNC(=N)N)C(=O)N[C@@H](CCCNC(=N)N)C(=O)N[C@@H](CCC(N)=O)C(=O)N[C@@H](CCCNC(=N)N)C(=O)N[C@@H](CCCNC(=N)N)C(=O)N[C@@H](CCCNC(=N)N)C(=O)O [Peptide 8, NMALQRVREAAEKAKSEL] | — | cell killing effect | ↑ (*)— |  |  |  |  | 
2 | MVKNAEKYAEEDRYMGRKKRRQRRR (synthetic peptide (TAT modified peptide 14)) [TAT-peptide no: 14] |  |  |  | markedly enhanced the capacity of peptide no: 14 to induce apoptosis | markedly enhanced the capacity of peptide no: 14 to induce apoptosis |  |  | 
3 | Mortalin: human mortalin protein, member of the HSP70 family (SEQ ID NO: 24), recombinant |  |  | — |  |  | completely inhibited C9 polymerization | ↓↓↓ | ↓↓↓

From patent publication US20170355736A1, “MORTALIN PEPTIDES AND ANTIBODIES AND USES THEREOF FOR INHIBITING MORTALIN ACTIVITY AND TREATING A DISEASE ASSOCIATED WITH A PATHOLOGICAL CELL” (Ramot at Tel-Aviv University Ltd., priority 2014, published 2017)
